The subject of one data set is parasite. The note with it: cited from earlier work. An excerpt: In most cases, the biological substrates of these cyclophilins are unknown and extensive structural studies on cyclophilin- substrate interactions have not been reported.
The subject of the next data set is TvCyP1. Briefly: NMR ROESY cis/trans isomerization (PPIase) of P107 in Myb1^104–111. It counts as biochemical, Trichomonas vaginalis. The method, then:
^1H-TOCSY, ^1H-COSY and ^1H-NOESY were performed at 300 K with a mixing time of 75 ms (TOCSY) and 300 ms (NOESY) on the Myb1^104–111 peptide to complete the assignment of proton resonances. The peptide was dissolved in 20 mM monosodium phosphate, 50 mM NaCl, 0.5 mM NaN3 (pH 6.0) to obtain a concentration of 2 mM. All ROESY experiments were performed at 300 K with 300 ms mixing time. […]

Another data set has as its system cyclophilins. The note with it: binding to the active site; cited from earlier work. An excerpt:
Catalytically active cyclophilins with a single cyclophilin domain reported till now are monomeric in nature.

The test system of another data set is isoforms of cyclophilins. Also noted: method as in PMID 20676357. The note with it: cited from earlier work.
For data set [1] the following is noted: cited from earlier work. The text has this:
Nuclear translocation of Myb1 is an important step regulating the expression of disease causing ap65–1 gene. […] Moreover, CsA is not specific to any of the isof ...

Data set [2] deals with Cyclophilin 1 (TvCyP1) of Trichomonas vaginalis (Trichomonas vaginalis). In words: AUC; sedimentation velocity, 29 μM TvCyP1 (legend: 30 μM), 20 °C, 50,000 rpm; 20 mM monosodium phosphate, 50 mM NaCl, 0.5 mM NaN3, pH 6.0; Sedfit.
The target is the same in data set [3]. In words: SEC-MALS; 300 μg TvCyP1 (3 mg/mL) on ENrich SEC 70 column; 20 mM monosodium phosphate, 50 mM NaCl, 0.5 mM NaN3, pH 6.0, 25 °C. In general terms: SEC sorts molecules by how far they enter the pores of the column.
In data set [4] the target is FITC-labeled Myb1^104–111 peptide (Trichomonas vaginalis). Briefly: fluorescence polarisation.

Entries after “also recorded” stand apart in the source; their conditions may differ.

We go through 3 compounds from paper PMC5882848, “Structural basis of interaction between dimeric cyclophilin 1 and Myb1 transcription factor in Trichomonas vaginalis” (Scientific Reports, 2018).

As to cyclosporin A [CsA], the anti-parasitic activity result in the data set with parasite is given as “have been found with anti-parasitic activity”. The “inhibition of TvCyP1 isomerase activity” value in the data set with TvCyP1 (ROESY, 300 ms mixing time, 300 K, pH 6.0, CsA 22 μM (1.0 molar equivalent), 4.4 mM Myb1^104–111, 22 μM TvCyP1) is “hindered catalysis; also recorded: loss of the exchange cross-peaks between cis and trans resonances”. The “inhibition of Myb1^104–111 binding to TvCyP1 active site” value in the data set with TvCyP1 (from ROESY experiments, CsA) is reported as “can inhibit Myb1^104–111 binding to the active site”. In addition, the “inhibition of PPIase activity of cyclophilins” value in the data set on cyclophilins is listed as “PPIase activity of cyclophilins can be inhibited”. Also, in the data set with isoforms of cyclophilins, the isoform specificity entry was “not specific to any of the isoforms of cyclophilins”. In addition, the immunosuppressive activity result in data set [1] is “deleterious effect of its immunosuppressive activity”.

With `CC[C@H]1C[C@H](C)[C@@]2(NC1=O)O[C@@H](C[C@H](O)[C@@H](C)CC/C=C/C=C(\C)[C@@H]1C/C=C/C=C/[C@H](O)[C@H](C)[C@@H](O)[C@@H](CCC(C)=O)C(=O)N[C@@H](C(C)C)C(=O)N[C@@H](Cc3cccc(O)c3)C(=O)N3CCC[C@H](N3)C(=O)O1)[C@H](C)[C@H](O)[C@@H]2C` [sanglifehrin A (SfA), sanglifehrin A], the “inhibition of PPIase activity of cyclophilins” value with cyclophilins is “PPIase activity of cyclophilins can be inhibited”.

As for “Cyclophilin 1 (TvCyP1) of Trichomonas vaginalis (enzyme)”, the stoichiometry N in data set [2] and in data set [3] was 2 throughout. In addition, in data set [4], the Kd – broadly, the free concentration of one partner at which half of the binding sites on the other are occupied at equilibrium, for simple one-to-one binding – is 16.8 µM.
